Reference: patent US20230086702A1, “SUBSTITUTED 2-AMINO-PYRAZOLYL-[1,2,4]TRIAZOLO[1,5A]PYRIDINE DERIVATIVES AND USE THEREOF” (The Johns Hopkins University, priority 2019, published 2023)

Key:
LZK = target: T1, LZK (Homo sapiens, UniProt O43283); test: LZK biochemical assay (TR-FRET, MKK7 phosphorylation)
T1 construct: 10 nM LZK, catalytic domain, Carna Biosiences in assay buffer; purchased Carna Biosciences ('Carna Biosiences' [sic])
T1 sequence (O43283 168-409 limits assumed): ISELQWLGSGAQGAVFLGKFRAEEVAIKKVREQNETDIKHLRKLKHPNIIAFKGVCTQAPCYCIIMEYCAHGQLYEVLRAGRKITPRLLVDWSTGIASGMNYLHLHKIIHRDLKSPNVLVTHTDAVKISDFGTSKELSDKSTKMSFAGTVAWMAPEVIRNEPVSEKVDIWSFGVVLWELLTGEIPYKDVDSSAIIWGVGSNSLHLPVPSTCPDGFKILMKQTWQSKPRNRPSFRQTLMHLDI
Outline: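 Read-out is HTRF: Eu-labelled anti-phospho-MKK7 (T275/S277) and XL665 anti-His, incubated 16 h at 32 °C, with a drop in signal marking inhibition. Reaction beforehand: 10 nM LZK kinase domain, 15 nM His-MKK7, 15 µM ATP (final) for 90 min at room temperature, pH 7.5.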

DLK = target: T2, DLK (Homo sapiens, UniProt Q12852); test: DLK biochemical assay (TR-FRET, MKK7 phosphorylation)
T2 construct: 10 nM DLK, catalytic domain, Carna Biosiences; purchased Carna Biosciences ('Carna Biosiences' [sic])
T2 sequence (Q12852 125-366 limits assumed): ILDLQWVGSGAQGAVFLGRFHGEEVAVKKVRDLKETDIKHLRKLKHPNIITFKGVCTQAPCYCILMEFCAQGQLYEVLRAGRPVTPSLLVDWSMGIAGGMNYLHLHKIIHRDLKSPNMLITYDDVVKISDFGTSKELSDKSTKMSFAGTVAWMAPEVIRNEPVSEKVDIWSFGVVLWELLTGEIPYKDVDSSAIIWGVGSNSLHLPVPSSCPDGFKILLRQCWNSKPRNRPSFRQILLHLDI
Outline: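 TR-FRET read-out (665/Eu ratio) of MKK7 T275/S277 phosphorylation, with inhibition lowering the signal. Final conditions: 10 nM DLK catalytic domain, 15 nM MKK7, 60 μM ATP, 90 min at RT. Detection incubation 16 h at 37° C in 1536-well or 4° C in 384-well format.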

| SMILES | IC50 (LZK) | IC50 (DLK) |
| --- | --- | --- |
| Nc1nc2c(-c3ccc(=O)n(C(F)F)c3)cc(-c3cnn(C(c4ccc(C(F)(F)F)nc4)C4CCOCC4)c3)cn2n1 (stereo not shown) [II-153] | 3.5 nM | 1.4 nM |
| Nc1nc2c(-c3ccc(=O)n(CC(F)F)c3)cc(-c3cnn(C(c4ccc(C(F)(F)F)nc4)C4CCOCC4)c3)cn2n1 (stereo not shown) [II-156] | 3.3 nM | 1.1 nM |
| CC[C@@H](c1ccc(C(F)(F)F)nc1)n1cc(-c2cc(-c3ccc(=O)n(CC(F)(F)F)c3)c3nc(N)nn3c2)cn1 [II-159, 5-[2-Amino-6-(1-{(1S)-1-[6-(trifluoromethyl)pyridin-3-yl]propyl}-1H-pyrazol-4-yl)[1,2,4]triazolo[1,5-a]pyridin-8-yl]-1-(2,2,2-trifluoroethyl)pyridin-2(1H)-one] | 6.2 nM | 2.4 nM |
| Nc1nc2c(-c3ccc(=O)n(CC(F)(F)F)c3)cc(-c3cnn(C(c4ccc(C(F)(F)F)nc4)C4CCOCC4)c3)cn2n1 (stereo not shown) [II-160] | 5.9 nM | 1.5 nM |
| Nc1nc2c(-c3ccc(=O)n(CC(F)(F)F)c3)cc(-c3cnn([C@H](c4ccc(C(F)(F)F)nc4)C4CCOCC4)c3)cn2n1 [II-162] | 2 nM | 0.8 nM |
| CCC(c1ccc(OC(F)(F)F)nc1)n1cc(-c2cc(-c3ccc(=O)n(CC(F)(F)F)c3)c3nc(N)nn3c2)cn1 (stereo not shown) [II-163] | 25 nM | 4.9 nM |
| Nc1nc2c(-c3cn(CC(F)(F)F)c(=O)cn3)cc(-c3cnn(C(c4ccc(C(F)(F)F)nc4)C4CCOCC4)c3)cn2n1 (stereo not shown) [II-166] | 27 nM | 4 nM |
| CCC(c1ccc(C(F)(F)F)nc1)n1cc(-c2cc(-c3ccn(C)c(=O)c3)c3nc(N)nn3c2)cn1 (stereo not shown) [II-169] | 60 nM | 20 nM |
| Nc1nc2c(-c3ccn(CC(F)F)c(=O)c3)cc(-c3cnn(C(c4ccc(C(F)(F)F)nc4)C4CCOCC4)c3)cn2n1 (stereo not shown) [II-172] | 11 nM | 2.2 nM |
| Nc1nc2c(-c3ccn(CC(F)(F)F)c(=O)c3)cc(-c3cnn(C(c4ccc(C(F)(F)F)nc4)C4CCOCC4)c3)cn2n1 (stereo not shown) [II-175] | 13 nM | 2.7 nM |
| CC[C@@H](c1ccccc1)n1cc(-c2cc(-c3ccc(=O)[nH]c3)n3nc(N)nc3c2)cn1 [II-178, 5-(2-Amino-7-{1-[(1S)-1-phenylpropyl]-1H-pyrazol-4-yl}[1,2,4]triazolo[1,5-a]pyridin-5-yl)pyridin-2(1H)-one] | 74 nM | 15 nM |
| CCC(c1ccc(C(F)(F)F)nc1)n1cc(-c2cc(-c3ccc(=O)n(C(F)F)c3)n3nc(N)nc3c2)cn1 (stereo not shown) [II-179] | 8 nM | 12 nM |
| Nc1nc2cc(-c3cnn(C(c4ccc(C(F)(F)F)nc4)C4CCOCC4)c3)cc(-c3ccc(=O)n(C(F)F)c3)n2n1 (stereo not shown) [II-182] | 6.5 nM | 4 nM |
| Nc1nc2cc(-c3cnn(C(c4ccc(C(F)(F)F)nc4)C4CCOCC4)c3)cc(-c3ccc(=O)n(CC(F)F)c3)n2n1 (stereo not shown) [II-185] | 2 nM | 1.3 nM |
| CCC(c1ccc(C(F)(F)F)nc1)n1cc(-c2cc(-c3ccc(=O)n(CC(F)(F)F)c3)n3nc(N)nc3c2)cn1 (stereo not shown) [II-188] | 10 nM | 7.1 nM |
| CC[C@@H](c1ccc(C(F)(F)F)nc1)n1cc(-c2cc(-c3ccc(=O)n(CC(F)(F)F)c3)n3nc(N)nc3c2)cn1 [II-190] | 5.4 nM | 2.9 nM |
| Nc1nc2cc(-c3cnn(C(c4ccc(C(F)(F)F)nc4)C4CCOCC4)c3)cc(-c3ccc(=O)n(CC(F)(F)F)c3)n2n1 (stereo not shown) [II-191] | 6.3 nM | 3.2 nM |
| CCc1nnc(-c2cc(-c3cnn(Cc4ccccc4)c3)cn3nc(N)nc23)s1 [II-197, 6-(1-Benzyl-1H-pyrazol-4-yl)-8-(5-ethyl-1,3,4-thiadiazol-2-yl)[1,2,4]triazolo[1,5-a]pyridin-2-amine] | 690 nM | 240 nM |
| CC(C)c1nnc(-c2cc(-c3cnn(Cc4ccccc4)c3)cn3nc(N)nc23)s1 [II-198, 6-(1-Benzyl-1H-pyrazol-4-yl)-8-[5-(propan-2-yl)-1,3,4-thiadiazol-2-yl][1,2,4]triazolo[1,5-a]pyridin-2-amine] | 260 nM | 150 nM |
| C[C@@H](CO)c1nnc(-c2cc(-c3cnn(Cc4cccc5cn[nH]c45)c3)cn3nc(N)nc23)s1 [II-199, (2S)-2-(5-{2-Amino-6-[1-(1H-indazol-7-ylmethyl)-1H-pyrazol-4-yl][1,2,4]triazolo[1,5-a]pyridin-8-yl}-1,3,4-thiadiazol-2-yl)propan-1-ol] | 410 nM | 12 nM |
